Results on six compounds are retold here after patent US11759460B2, “Method of local antibiotic treatment of infective endocarditis” (priority 2020, dated 2023).

Data set [1] deals with S. aureus biofilms. In words: Single antibiotic treatment of S. aureus biofilms (SGT method). In kind it is cell-based, Staphylococcus aureus. Conditions: for biofilm bactericidal concentration (BBC): S. aureus biofilms grown 48 h, 24 h treatment, 3 log10 CFU (99.9%) reduction vs control. From the text:
(§1) FIGS. 1A and 1B illustrates effects of different antibiotics tested in a dose-dependent manner against bacterial biofilms of different isolates of S. aureus and E. faecalis using only one antibiotic per treatment to screen the effect of the single antibiotics against bacterial biofilms. The graphs show the decadic logarithm of the colony forming units (log10 CFU) of either S. aureus or E. faecalis on the ordinate in relation to the concentration of various antibiotics on the abscissa. Data points belonging to one antibiotic were connected by lines for clarity. In each graph, the dashed line reflects the biofilm bactericidal concentration (BBC), defined as the target of 3 log10 CFU below the control, i.e. the log10 CFU of untreated biofilms (shown at the antibiotic concentration of 0 mg/L), which needs to be undercut to achieve a meaningful suppression of the bacteria in a biofilm of ≥99.9%. The line graphs intersecting this line indicate the antibiotics' concentrations that need to be applied for effective treatment in S. aureus and E. faecalis biofilms. […] For instance, the BBC of rifampicin against S. aureus is ˜4 mg/L; the BBC of dalbavancin is ˜32 mg/L against E. faecalis in biofilms.
FIGS. 1A and 1B illustrate the effect of different antibiotics tested in a dose-depended manner against bacterial biofilms of different bacterial isolates of S. aureus and E. faecalis using only one antibiotic per treatment to screen the effect of the single antibiotics against bacterial biofilms. To obtain the results the inventors used four strains of S. aureus, i.e. three patient isolates and one reference strain, and three strains of E. faecalis, i.e. two isolates from patients as well as one reference strain. In order to test the different antibiotics individually against the bacterial biofilms, the inventors incubated bacterial suspensions of E. faecalis and S. aureus strains in a 96 well microtiter plate for biofilm formation for 48 hours in a humidified modified atmosphere at 37° C. and 5% CO2 without shaking. For the antibiotic treatment of the biofilms the supernatant of each well was removed and the antibiotic treatment with the individual antibiotics to be tested was added to the biofilms and incubated for 24 hours at the same conditions. The number of bacteria in each well after the 24-hour treatment was determined via so called start-growth-time (SGT) method, where the bacterial regrowth of the dispersed bacteria from the biofilms was measured in an incubation chamber of a plate reader over time. Lower bacteria densities lead to a longer regrowth time to reach a certain threshold compared to controls. Each treatment for each strain was performed in three technical replicates. […]

Data set [2] deals with planktonic S. aureus. In words: Minimal inhibitory concentration for planktonic S. aureus. In kind it is cell-based. Conditions: Staphylococcus aureus.
The conditions of data set [3]: cited from earlier work.
Data set [4] relates to planctonic Enterococcus faecalis. In words: Minimal inhibitory concentration for planktonic Enterococcus faecalis. Type of data set: cell-based.
Data set [5] concerns E. faecalis biofilms. Briefly: Single antibiotic treatment of E. faecalis biofilms (SGT method). Type of data set: cell-based, Enterococcus faecalis. Conditions: for biofilm bactericidal concentration (BBC): E. faecalis biofilms grown 48 h, 24 h treatment, 3 log10 CFU (99.9%) reduction vs control.
Excerpt: as §1
FIGS. 1A and 1B illustrate the effect of different antibiotics tested in a dose-depended manner against bacterial biofilms of different bacterial isolates of S. aureus and E. faecalis using only one antibiotic per treatment to screen the effect of the single antibiotics against bacterial biofilms. To obtain the results the inventors used four strains of S. aureus, i.e. three patient isolates and one reference strain, and three strains of E. faecalis, i.e. two isolates from patients as well as one reference strain. […] The number of bacteria in each well after the 24-hour treatment was determined via so called start-growth-time (SGT) method, where the bacterial regrowth of the dispersed bacteria from the biofilms was measured in an incubation chamber of a plate reader over time. […]

Where [6] appears, read: systemic therapy, 'believed to be'.

SMILES strings stand for the structures. In brackets after ≈: the same amount, converted by molar mass. Entries after “also recorded” stand apart in the source; their conditions may differ. Where two headings read alike, the source gives them in different places.

The MIC is the lowest concentration that inhibits growth of the organism. A low value points to greater potency. On to `CO[C@H]1/C=C/O[C@@]2(C)Oc3c(C)c(O)c4c(O)c(c(/C=N/N5CCN(C)CC5)c(O)c4c3C2=O)NC(=O)/C(C)=C\C=C\[C@H](C)[C@H](O)[C@@H](C)[C@@H](O)[C@@H](C)[C@H](OC(C)=O)[C@@H]1C` [rifampicin], for which the “biofilm bactericidal concentration (BBC)” value in data set [1] was about 4 mg/L. In data set [2], this compound came in with an MIC of about 0.004 µg/mL (≈ 0.00486 µM). For the same compound, in data set [3] (setting [6]), the “approximate concentration in tissue with systemic therapy” value (“approximate concentration in tissue” for short) is given as about 1 mg/L.
Turning to `CN[C@H](CC(C)C)C(=O)N[C@H]1C(=O)N[C@@H](CC(N)=O)C(=O)N[C@H]2C(=O)N[C@H]3C(=O)N[C@H](C(=O)N[C@H](C(=O)O)c4cc(O)cc(O)c4-c4cc3ccc4O)[C@H](O)c3ccc(c(Cl)c3)Oc3cc2cc(c3O[C@@H]2O[C@H](CO)[C@@H](O)[C@H](O)[C@H]2O[C@H]2C[C@](C)(N)[C@H](O)[C@H](C)O2)Oc2ccc(cc2Cl)[C@H]1O` [vancomycin], in data set [3] (setting [6]), the “approximate concentration in tissue” value is listed as about 1 mg/L.
As to `CCCCCCCCCC(=O)N[C@@H](Cc1c[nH]c2ccccc12)C(=O)N[C@H](CC(N)=O)C(=O)N[C@@H](CC(=O)O)C(=O)N[C@@H]1C(=O)NCC(=O)N[C@@H](CCCN)C(=O)N[C@@H](CC(=O)O)C(=O)N[C@H](C)C(=O)N[C@@H](CC(=O)O)C(=O)NCC(=O)N[C@H](CO)C(=O)N[C@@H]([C@H](C)CC(=O)O)C(=O)N[C@@H](CC(=O)c2ccccc2N)C(=O)O[C@@H]1C` [daptomycin], the MIC in data set [4] and in data set [2] was about 0.25 µg/mL (≈ 0.154 µM) throughout. Further, in data set [5], the “biofilm bactericidal concentration (BBC)” value was “about 32 mg/L”. Besides, the “suppression of bacteria in biofilms (in words)” value is on record as “can suppress the bacteria sufficiently; also recorded: highest potency” in data set [5] (E. faecalis biofilms, single antibiotic) and “can suppress the bacteria sufficiently; also recorded: highest potency” in data set [1] (S. aureus biofilms, single antibiotic). The “approximate concentration in tissue” value in data set [3] (in vivo) is given as about 4 mg/L.
As to `NCC[C@H](O)C(=O)N[C@@H]1C[C@H](N)[C@@H](O[C@H]2O[C@H](CN)[C@@H](O)[C@H](O)[C@H]2O)[C@H](O)[C@H]1O[C@H]1O[C@H](CO)[C@@H](O)[C@H](N)[C@H]1O` [Amikacin, amikacin], in data set [1], the “biofilm bactericidal concentration (BBC)” value is on record as over 512 mg/L.
Still for that read-out and setting: as for `CN[C@H]1C(=O)N[C@@H]2Cc3ccc(cc3)Oc3cc4cc(c3O[C@@H]3O[C@H](C(=O)O)[C@@H](O)[C@H](O)[C@H]3NC(=O)CCCCCCCCC(C)C)Oc3ccc(cc3Cl)[C@@H](O)[C@@H]3NC(=O)[C@H](NC(=O)[C@@H]4NC(=O)[C@@H](NC2=O)c2cc(cc(O)c2Cl)Oc2cc1ccc2O)c1ccc(O)c(c1)-c1c(O[C@H]2O[C@H](CO)[C@@H](O)[C@H](O)[C@@H]2O)cc(O)cc1[C@@H](C(=O)NCCCN(C)C)NC3=O` [dalbavancin], the entry is “about 4 mg/L”.
With `C[C@@H]1O[C@@H]1P(=O)(O)O` [phosphomycin], the “biofilm bactericidal concentration (BBC)” value in data set [5] was over 1024 mg/L.
